The values below come from ChEMBL document CHEMBL1125514, “Quantitative structure-activity relationships of N2-phenylguanines as inhibitors of herpes simplex virus thymidine kinases” (J Med Chem, 1992).

Experiment [1] addresses T1, Thymidine kinase (Human herpesvirus 2, UniProt Q6L709).
T1 sequence (Q6L709 whole entry): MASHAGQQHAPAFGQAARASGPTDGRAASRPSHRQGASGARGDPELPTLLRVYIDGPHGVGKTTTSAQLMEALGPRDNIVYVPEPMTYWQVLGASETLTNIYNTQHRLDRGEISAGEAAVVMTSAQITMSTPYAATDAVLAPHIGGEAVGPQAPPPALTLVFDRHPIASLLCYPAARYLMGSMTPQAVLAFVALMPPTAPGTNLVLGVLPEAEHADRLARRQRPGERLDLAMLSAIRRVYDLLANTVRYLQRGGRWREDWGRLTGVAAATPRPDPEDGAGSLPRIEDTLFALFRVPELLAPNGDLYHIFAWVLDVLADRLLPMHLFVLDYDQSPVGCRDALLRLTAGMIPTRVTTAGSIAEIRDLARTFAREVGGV
Nature of the experiment: Inhibitory activity against HSV-2 thymidine kinase isolated from HeLa cells. Type of experiment: cell-free. To be noted: read-out: Log 1/IC50 (converted).

The target of experiment [2] is T2, Thymidine kinase (Human herpesvirus 1 (strain SC16) (HHV-1) (Human herpes simplex virus1), UniProt P06479).
T2 sequence (P06479 whole entry): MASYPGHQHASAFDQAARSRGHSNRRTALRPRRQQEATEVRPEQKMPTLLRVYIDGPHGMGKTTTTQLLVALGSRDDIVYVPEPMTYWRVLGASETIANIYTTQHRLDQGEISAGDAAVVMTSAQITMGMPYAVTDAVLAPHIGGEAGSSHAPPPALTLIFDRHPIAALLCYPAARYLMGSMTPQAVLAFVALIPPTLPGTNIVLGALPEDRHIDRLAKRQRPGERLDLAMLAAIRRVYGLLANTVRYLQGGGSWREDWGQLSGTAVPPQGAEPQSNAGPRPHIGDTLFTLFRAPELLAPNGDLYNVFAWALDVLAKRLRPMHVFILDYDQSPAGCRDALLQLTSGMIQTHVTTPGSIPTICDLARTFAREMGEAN
As to the kind of experiment: Inhibitory activity against HSV-1 thymidine kinase isolated from HeLa cells. In kind it is cell-free. To be noted: for IC50: read-out: Log 1/IC50 (converted).

`Oc1[nH]c(Nc2cccc(CCl)c2)nc2ncnc1-2`: the IC50 at Thymidine kinase [1] is 1.35 µM; at Thymidine kinase [2], 1.41 µM.
For `Oc1[nH]c(Nc2ccc(Cl)cc2)nc2ncnc1-2`, in that order: 50.1 µM and 100 µM.
For `CCCc1ccc(Nc2nc(O)c3[nH]cnc3n2)cc1`, in that order: 46.8 µM and 30.2 µM.
For the compound `NCc1cccc(Nc2nc(O)c3[nH]cnc3n2)c1`, the results for the IC50 on Thymidine kinase [1] and on Thymidine kinase [2] were 20 µM and 30.2 µM, respectively.
For `[N-]=[N+]=NCc1cccc(Nc2nc3ncnc-3c(O)[nH]2)c1`, in that order: 1.51 µM and 0.794 µM.
Turning to `Oc1[nH]c(Nc2cccc(CBr)c2)nc2ncnc1-2`, the IC50 on Thymidine kinase [1] was 1.2 µM; at Thymidine kinase [2], 1 µM.
Taken in the same sequence, the figures for `Oc1[nH]c(Nc2cccc(I)c2)nc2ncnc1-2` were 1.1 µM and 1.1 µM.
For `CC(C)c1ccc(Nc2nc(O)c3[nH]cnc3n2)cc1`, in that order: 100 µM and 200 µM.
On to `CCCCc1ccc(Nc2nc(O)c3[nH]cnc3n2)cc1`, for which the IC50 on Thymidine kinase [1] was 50.1 µM. The “Log 1/IC50” value at Thymidine kinase [2] (hela) amounted to 4.3.
As to `O=c1nc(Nc2cccc(CO)c2)[nH]c2nc[nH]c12`, the IC50 on Thymidine kinase [1] was 20 µM; at Thymidine kinase [2], 25.1 µM.
For `Oc1[nH]c(Nc2ccc(F)c(Cl)c2)nc2ncnc1-2`, in that order: 2.51 µM and 7.94 µM.
As to `Oc1[nH]c(Nc2ccc(F)cc2)nc2ncnc1-2`, the IC50 is 257 µM at Thymidine kinase [1] and 302 µM on Thymidine kinase [2].
For `O=c1[nH]c(Nc2ccc(F)c(F)c2)nc2nc[nH]c12`, in that order: 2.19 µM and 50.1 µM.
Taken in the same sequence, the figures for `Oc1[nH]c(Nc2ccc(Cl)c(C(F)(F)F)c2)nc2ncnc1-2` were 5.01 µM and 20 µM.
Consider `CCCCc1ccc(Nc2nc(O)c3[nH]cnc3n2)cc1C`, for which the IC50 at Thymidine kinase [2] was 39.8 µM.
For `CCCCCc1ccc(Nc2nc(O)c3[nH]cnc3n2)cc1`, the IC50 at Thymidine kinase [1] is 251 µM; on Thymidine kinase [2], 501 µM.
For `CCc1cccc(Nc2nc3nc[nH]c3c(=O)[nH]2)c1`, in that order: 3.98 µM and 2.51 µM.
With `Cc1ccc(Nc2nc3nc[nH]c3c(=O)[nH]2)cc1`, the figures for the IC50 on Thymidine kinase [1] and on Thymidine kinase [2] were 6.03 µM and 50.1 µM, respectively.
Taken in the same sequence, the figures for `O=c1[nH]c(Nc2cccc(C(F)(F)F)c2)nc2nc[nH]c12` were 0.1 µM and 0.151 µM.
Taken in the same sequence, the figures for `N#Cc1cccc(Nc2nc3ncnc-3c(O)[nH]2)c1` were 0.398 µM and 5.01 µM.
For the compound `Oc1[nH]c(Nc2cccc(Br)c2)nc2ncnc1-2`, the IC50 is 0.603 µM on Thymidine kinase [1] and 1.51 µM at Thymidine kinase [2].
Taken in the same sequence, the figures for `Oc1[nH]c(Nc2ccc(I)cc2)nc2ncnc1-2` were 8.91 µM and 39.8 µM.
Taken in the same sequence, the figures for `Oc1[nH]c(Nc2cccc(Cl)c2)nc2ncnc1-2` were 0.347 µM and 1.51 µM.
Taken in the same sequence, the figures for `Oc1[nH]c(Nc2ccc(Br)cc2)nc2ncnc1-2` were 0.603 µM and 1 µM.
For `O=c1[nH]c(Nc2ccc(O)cc2)nc2nc[nH]c12`, the results for the IC50 on Thymidine kinase [1] and on Thymidine kinase [2] were 20 µM and 141 µM, respectively.
Take `Oc1[nH]c(Nc2ccc3ccccc3c2)nc2ncnc1-2`: the IC50 was 10 µM on Thymidine kinase [1] and 39.8 µM on Thymidine kinase [2].
For `Oc1[nH]c(Nc2ccc(C(F)(F)F)cc2)nc2ncnc1-2`, in that order: 39.8 µM and 30.2 µM.
Take `Oc1[nH]c(Nc2ccc(Br)c(Br)c2)nc2ncnc1-2`: the values for the IC50 at Thymidine kinase [1] and at Thymidine kinase [2] were 1.29 µM and 3.02 µM, respectively.
For `Cc1ccc(Nc2nc(O)c3[nH]cnc3n2)cc1CO`, in that order: 200 µM and 269 µM.
